From US7176234B2, “Derivatives of gambogic acid and analogs as activators of caspases and inducers of apoptosis” (priority 2002, dated 2007)
“Also recorded” adds a separate entry of the source. Read-outs that look alike come from different tables or passages of the source.

Legend:
T-47D = assay: Caspase cascade activation / apoptosis induction assay (N-(Ac-DEVD)-N'-ethoxycarbonyl-R110 substrate) in T-47D cells; format: cell-based, Human; settings: T47D cells
Experimental: Human breast cancer cell lines T-47D and ZR-75-1 were grown according to media component mixtures designated by American Type Culture Collection+10% FCS (Invitrogen Corporation), in a 5% CO2-95% humidity incubator at 37° C. T-47D and ZR-75-1 cells were maintained at a cell density between 30 and 80% confluency and for HL-60 at a cell density of 0.1 to 0.6×10^6 cells/ml. Cells were harvested at 600×g and resuspended at 0.65×10^6 cells/mL into appropriate media+10% FCS. An aliquot of 45 μl of cells was added to a well of a 96-well microtiter plate containing 5 μl of a 10% DMSO in RPMI-1640 media solution containing 1.6 to 100 μM of gambogic acid or other test compound (0.16 to 10 μM final). An aliquot of 45 μl of cells was added to a well of a 96-well microtiter plate containing […] of a 10% DMSO in RPMI-1640 media solution without test compound as the control sample. The samples were mixed by agitation and then incubated at 37° C. for 24 h in a 5% CO2-95% humidity incubator. After incubation, the samples were removed from the incubator and 50 μl of a solution containing 20 μM of N-(Ac-DEVD)-N′-ethoxycarbonyl-R110 fluorogenic substrate SEQ ID NO:1 (Cytovia, Inc.; U.S. Pat. No. 6,335,429), 20% sucrose (Sigma), 20 mM DTT (Sigma), 200 mM NaCl (Sigma), 40 mM Na PIPES buffer pH 7.2 (Sigma), and 500 μg/mL lysolecithin (Calbiochem) was added. The samples were mixed by agitation and incubated at room temperature. Using a fluorescent plate reader (Model 1420 Wallac Instruments), an initial reading (T=0) was made approximately 1–2 min after addition of the substrate solution, employing excitation at 485 nm and emission at 530 nm, to determine the background fluorescence of the control sample. After approximately 3 h of incubation, the samples were read for fluorescence as above (T=3 h).
The Relative Fluorescence Unit values (RFU) were used to calculate the sample readings as follows: RFU(T=3h)−Control RFU(T=0)=Net RFU(T=3h)
The activity of caspase cascade activation was determined by the ratio of the net RFU value for derivatives of gambogic acid to that of control samples. The EC50 (nM) was determined by a sigmoidal dose-response calculation (Prism 2.0, GraphPad Software Inc.).
Methyl 9,10-dihydro-10-morpholinyl-gambogate and gambogic acid were assayed as described in Example 28 in T47D cells. The samples of cells and testing compound were incubated for 5 h and 24 h, respectively. Table II summarizes the caspase activity (Ratio) and potency (EC50) of methyl 9,10-dihydro-10-morpholinyl-gambogate (compound B) in the 5 h and 24 h assays, in comparison with that of gambogic acid (compound A).

[1] = Conversion of methyl 9,10-dihydro-10-morpholinyl-gambogate to methyl gambogate in biological media (HPLC); format: physicochemical
Experimental: A solution of methyl 9,10-dihydro-10-morpholinyl-gambogate in 87.5% RPMI 1640 biological Media (Invitrogen Corporation, Carlsbad, Calif.), 5.6% EtOH, 1.3% DMSO, and 5.6% Cremophor EL at a concentration of 5 mg/ml was stored at 37° C. The amount of methyl 9,10-dihydro-10-morpholinyl-gambogate (compound B) and methyl gambogate (compound C) was measured by integration of the peak area. The HPLC was run in the Beckman System Gold with 32 Karate software under the following conditions: […]

ICR (CD-1) mice = assay: Maximum tolerated dose (MTD) in mice, I.V.; format: in vivo; settings: mouse, in vivo
Experimental: For acute toxicity studies, 3 ICR (CD-1) mice were used per each dose group. Animals were given a single bolus injection in the tail vein with approximately 100 μl volume of compound formulation or vehicle formulation. Mice body weights were measured daily along with daily observation for clinical abnormalities. The maximum tolerated dose (MTD) was defined as the dose that results in less than 10% decrease in body weight with no clinical abnormalities.
For multiple dose studies, the animals were dosed once a day for 5 days.
Table IV summarizes the MTD of gambogic acid and methyl 9,10-dihydro-10-morpholinyl-gambogate in mice by I.V. administration.

[2] = Pharmacokinetic studies in mice (plasma, LC/MS/MS); format: in vivo, ICR mice; settings: mice, single I.V. dose 50 mg/kg
Experimental: ICR mice were administered a single dose of drug into the tail vein. At each time point, 3 animals were sacrificed and the blood was withdrawn by cardiac puncture. The blood cells were spun down and the plasma was collected and frozen immediately in liquid nitrogen. For sample processing, the plasma was thawed and extraction solvent was added along with an internal standard to assess recoveries. The samples were vortexed followed by centrifugation, and the extraction solution was collected and subjected to LC/MS/MS analysis to identify and quantitate the compound plasma concentration. The levels of compound from the three animals at each time point were averaged and the pharmacokinetic parameters calculated using WinNonLin program. Table V summarized the major PK parameters.

MX-1 (Breast cancer) = assay: Efficacy in human tumor xenograft mouse model MX-1; format: in vivo, human tumor in CD1 nu/nu mice; settings: MX-1 xenograft, 50 mg/kg, every day, I.V.
Experimental: (§1) CD1 nu/nu mice were used. Viable tumor bits of transplantable human xenografts approximately 50 mg of trocar or cultured human tumor cells (nx106 cells?) were implanted subcutaneously into the flank region of mice and tumors were allowed to grow to the desired average size of 100 mg. The mice were measured for tumor size and those within the accepted tumor range of 75–125 mg, were randomized into control and treatment groups with 8–9 mice per group. Treatment was initiated on these groups which have an average starting tumor size of 100 mg. The control group was injected with the vehicle used to dissolve the drug. Injections were I.V. via the tail vein. Tumor measurements were taken every other day along with weights of animals and all animals were observed daily for survival. Tumor size was calculated by the equation of: Tumor volume=(length×width^2)/2.

[3] = tested on: SW620 (colorectal cancer); assay: Efficacy in human tumor xenograft mouse model SW620; format: in vivo, human tumor in CD1 nu/nu mice; settings: 75 mg/kg, every day, I.V.
Experimental: as §1

[4] = tested on: human tumor xenograft models; assay: Efficacy studies in human tumor xenograft models (text summary, model not named); format: in vivo, human tumor in nu/nu mice
Experimental: as §1

Structure (SMILES): COC(=O)C(C)=CCC12OC(C)(C)C3CC(C1=O)C(N1CCOCC1)C1C(=O)c4c(O)c5c(c(CC=C(C)C)c4OC132)OC(C)(CCC=C(C)C)C=C5 (stereo not drawn) [B, Methyl 9,10-dihydro-10-morpholinyl-gambogate]
- Activity in the caspase activation / apoptosis induction assay (in words), 5 h (T-47D; 5 h assay): not active
- Caspase activity (Ratio), 5 h (T-47D; 5 h assay): 1.2
- EC50 (T-47D; 5 h assay, read-out: Caspase potency EC50, 5 h): > 10 µM
- Activity in the caspase activation / apoptosis induction assay (in words), 24 h (T-47D; 24 h assay): active
- Caspase activity (Ratio), 24 h (T-47D; 24 h assay): 19
- EC50 (T-47D; 24 h assay, read-out: Caspase potency EC50, 24 h): 3.8 µM
- Conversion to methyl gambogate (reversal of Michael addition) in biological media (in words) ([1]; 37° C., RPMI biological media): reverse to methyl gambogate; also recorded: converted slowly
- Amount in biological media, 0 h ([1]; solution of compound B 5 mg/ml in 87.5% RPMI 1640, 37° C., HPLC peak area, 0 h): 92
- Amount in biological media, 2 h ([1]; solution of compound B 5 mg/ml in 87.5% RPMI 1640, 37° C., HPLC peak area, 2 h): 92
- Amount in biological media, 18 h ([1]; solution of compound B 5 mg/ml in 87.5% RPMI 1640, 37° C., HPLC peak area, 18 h): 72
- Amount in biological media, 48 h ([1]; solution of compound B 5 mg/ml in 87.5% RPMI 1640, 37° C., HPLC peak area, 48 h): 49
- Amount in biological media, 90 h ([1]; solution of compound B 5 mg/ml in 87.5% RPMI 1640, 37° C., HPLC peak area, 90 h): 28
- Acute MTD (ICR (CD-1) mice): >100 mg/kg
- Injection site toxicity (ICR (CD-1) mice): substantially reduced
- Multiple Dose MTD (ICR (CD-1) mice; iv): Once a day, 5 doses: >100 mg/kg
- Systemic toxicity / tolerability (in words) (ICR (CD-1) mice; iv): significantly less systemic toxicity than gambogic acid
- CL, Clearance [2]: 2.33 mL/min/kg
- T1/2, Terminal half-life [2]: 27.6 h
- Vss, Vol. of distribution [2]: 2.12 L/kg
- AUC (0-inf), Area under the curve ([2]; plasma): 353,021 ng-h/ml
- % Tumor reduction (MX-1 (Breast cancer)): 60%
- % Tumor reduction [3]: 58%
- Body weight loss / behavioral changes in efficacy studies ([4]; several human tumor xenograft models): no significant body weight loss or abnormal behavioral changes
- Efficacy (in words) ([4]; summary of Table VI, gambogic acid at its maximal tolerable dose): good efficacy
